According to article PMC11992225, “Antibacterial compounds against non-growing and intracellular bacteria” (npj Antimicrobials and Resistance, 2025):
Values after ≈ are worked out from the molar mass of the structure shown. Like-named read-outs stand apart in the source and are kept apart here.

Legend:
E. coli CFT073 (UPEC) = experiment: MIC, standard microdilution assay, growing UPEC; type: cell-based, Escherichia coli; conditions: E. coli; for MIC (μM) CA-MHB +PAβN: CA-MHB with 10 μg/ml efflux pump inhibitor PaβN
Procedure: (§1) Minimal inhibitory concentrations (MICs) were determined using a standard microdilution assay protocol. CA-MHB medium buffered with 40 mM HEPES (pH 7.4) was used to determine the MICs for UPEC, P. aeruginosa, and S. aureus. […] MICs for UPEC were also determined in LPM buffered with 30 mM MES (pH 5.5). For S. flexneri, MICs were determined in tryptic soy broth (TSB). The assay was performed in triplicates.

P. aeruginosa DSM1117 = experiment: MIC, standard microdilution assay, growing P. aeruginosa; type: cell-based, Pseudomonas aeruginosa; conditions: Pseudomonas aeruginosa, DSM1117; P. aeruginosa; CA-MHB pH 7.4; read-out: MIC (μM) CA-MHB
Procedure: as §1

S. aureus DSM2569 = experiment: MIC, standard microdilution assay, growing S. aureus; type: cell-based, Staphylococcus aureus; conditions: Staphylococcus aureus, DSM2569; S. aureus; CA-MHB pH 7.4; read-out: MIC (μM) CA-MHB
Procedure: as §1

S. flexneri 5a M90T = experiment: MIC in tryptic soy broth, S. flexneri; type: cell-based, Shigella flexneri; conditions: Shigella flexneri, 5AM90T, read-out: MIC (μM) TSB
Procedure: as §1

[1] = test system: non-growing S. aureus DSM2569; experiment: Dose-dependent killing analysis (CFU spot-plating) of stationary-phase S. aureus;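 also: drug concentration in µM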; type: cell-based, Staphylococcus aureus; conditions: S. aureus, vs 9,097 before treatment
Procedure: To determine the spectrum of activity of the compounds that were effective against non-growing UPEC, we further assessed their efficacy against the well-characterized Gram-negative and Gram-positive reference strains P. aeruginosa DSM1117 and S. aureus DSM2569, respectively. The cultures were grown and treated for 24 h in 1:4 CA-MHB (pH 7.4). […].
For survival analysis, bacteria were cultivated as described for the dose–response dilution-regrowth assay. Assays with UPEC were conducted at the CBCS screening facility using 96-well plates with a 200 μl sample volume, and compounds were dispensed using the Echo® (Labcyte) system. P. aeruginosa and S. aureus samples were treated according to the protocol used for the dilution-regrowth experiments. Treated samples were serially diluted 10-fold in PBS, and 10 μl drops were spot-plated onto rectangular LB agar plates using either a Beckman NXP robot (for UPEC) or an Integra VIAFLO96 electronic pipette (for P. aeruginosa and S. aureus). The LB agar plates were incubated overnight at 37 °C and scanned. Colonies were counted at the spots of the lowest dilution where individual colonies could be accurately distinguished. Each colony was manually marked on a separate image layer using the GNU Image Manipulation Program, and counted using NIST’s Integrated Colony Enumerator (NICE 1.4) software. The experiments were performed in three biological replicates.

[2] = test system: intracellular S. flexneri 5a M90T in TC7 cells; experiment: microbe, parasite or virus in culture; type: cell-based, Shigella flexneri; conditions: for IC50: Shigella flexneri, TC7, 14 h; for Fluorescence intensity (RFU), Mean, 0.0625 x MIC / Fluorescence intensity (RFU), Mean, 0.125 x MIC / Fluorescence intensity (RFU), Mean, 0.25 x MIC / Fluorescence intensity (RFU), Mean, 0.5 x MIC / Fluorescence intensity (RFU), Mean, 2 x MIC / Fluorescence intensity (RFU), Mean, MIC: TC7 cells infected with GFP-expressing S. flexneri, 14 h treatment
Excerpt: Nonproliferating bacterial pathogens frequently inhabit intracellular environments, but establishing relevant infection models for high-throughput testing is challenging. Therefore, we firstly tested ability of the hit compounds to cross the eukaryotic cytoplasmic membrane barrier and inhibit growth of S. flexneri within the cytoplasm of the TC7 human colon adenocarcinoma cell line[59]. To this end, we developed a new, fluorescence-based method that enables real-time monitoring of growth of intracellular Shigella. We used S. flexneri 5a M90T strain producing the AfaE adhesin that enhances bacterial adhesion to epithelial cells and allows synchronization of invasion. The strain was further modified to constitutively express super-folder GFP (sfGFP), which enables monitoring bacterial growth by fluorescence measurement. The epithelial cells were grown to confluence and infected with bacteria at an MOI (multiplicity of infection) of 50. […] Following bacterial adhesion and invasion, the cells were incubated with varying concentrations of the hit compounds and intracellular bacterial growth was tracked by measuring green fluorescence.
The cells were split using trypsin, seeded in 96-well plates for infection, and grown to confluence, corresponding to approximately 40,000 cells per well.
A single colony of S. flexneri was inoculated into TSB supplemented with 50 μg/ml spectinomycin and incubated overnight at 37°C with agitation. The overnight culture was diluted 1:200 in fresh TSB, and the bacteria were grown at 37 °C until the OD600 reached 0.3–0.4, corresponding to approximately 2 × 10^7 CFU/ml. Bacteria were pelleted by centrifugation, washed twice with sterile PBS, and resuspended in infection solution (serum-free DMEM supplemented with 20 mM HEPES, pH 7.4). Just prior to infection, the medium was withdrawn, and the cells were washed twice with sterile PBS. The bacterial inoculum (MOI 50, 2 × 10^7 CFU/ml) was added to all wells except the no-infection control. The plates were incubated at room temperature for 15 min to allow bacterial adhesion, followed by a 1 h incubation at 37 °C with 5% CO2 to facilitate bacterial invasion.
Twofold serial dilutions of the drugs were prepared in infection solution containing 50 μg/ml gentamicin in a 96-well plate. After the invasion period, the bacterial inoculum was removed, and the serial dilutions of the drugs were added to the wells, except for the no-drug control. […] […] The experiments were performed in triplicates on separate days.
(§2) Statistical significance of the drug effects was assessed using a one-way ANOVA followed by Dunnett’s test, comparing each treatment to the drug-free control. Statistical significance of the differences in chemical characteristics between the hit compounds and the Prestwick library was assessed using a Mann–Whitney test. Statistical significance was set at P ≤ 0.05. A five-parameter logistic equation was used for asymmetric sigmoidal curve fitting and for EC50 and IC50 determination. The Venn diagram in Fig. 1F was prepared using BioVenn web application. Characteristics of the chemical and physical properties of Prestwick library compounds were obtained from Supplementary Table S1 from reference. Characteristics of the hit compounds not included in the Prestwick library were retrieved from the PubChem database.

non-growing UPEC CFT073 = experiment: Dilution-regrowth assay (screen, hit validation, dose-response) on stationary-phase UPEC; type: cell-based, Escherichia coli; conditions: at 0.5 µM
Procedure: The cultures were incubated for 24 h in non-baffled Erlenmeyer flasks at 37 °C with shaking at 200 rpm.
The high-throughput screening (HTS) procedure was based on the protocol by Hazan and colleagues[15] and conducted at the Chemical Biology Consortium Sweden (CBCS) screening facility. […] Each plate included eight wells with 200 nl of 10 mM gatifloxacin, finafloxacin, and kanamycin solutions, along with 8-wells containing 200 nl of DMSO as controls. After 24 h incubation,100 μl of the culture was dispensed into each well of the 384-well plates for screening at a final concentration of 20 μM. The plates were sealed with parafilm and incubated at 37 °C for 24 h in closed humidified boxes, with wet paper towels added to prevent evaporation. […] The plates were incubated at 37 °C for 6 h in humidified boxes, then OD600 was measured using a microplate reader.
For hit validation, bacteria were cultivated, and the dilution-regrowth assay was conducted following the same protocol used in the primary screen. Hit compounds were dispensed into 384-well plates using the Echo® (Labcyte) system, with 200, 100, or 50 nl of a 10 mM solution in DMSO added per well, yielding final screening concentrations of 20, 10, and 5 μM, respectively. OD600 values of regrowing samples were normalized to the mean OD600 of the drug-free control. The testing was conducted in two replicates.
For UPEC, dose–response analysis was conducted at the CBCS screening facility. Bacteria were cultivated, and the dilution-regrowth assay was performed according to the HTS protocol. Compounds were dispensed into 384-well plates using the Echo® (Labcyte) system, and regrowth was assessed by measuring OD600 after 6 h of incubation at 37 °C in humidified boxes. Three biological replicates were performed.
as §2

[3] = Escherichia coli, pH 7.4, 1:4 diluted CA-MHB, read-out: MIC (μM) 1:4 CA-MHB
[4] = Escherichia coli, pH 7.4, CA-MHB, read-out: MIC (μM) CA-MHB

SMILES	MIC (μM) CA-MHB +PAβN (E. coli CFT073 (UPEC); pH 7.4) [µM]	MIC (E. coli CFT073 (UPEC); [3]) [µM]	MIC (E. coli CFT073 (UPEC); [4]) [µM]	MIC (P. aeruginosa DSM1117) [µM]	MIC (S. aureus DSM2569) [µM]	MIC (S. flexneri 5a M90T) [µM]	IC50 [2] [µM]	Fluorescence intensity (RFU), Mean, 0.0625 x MIC [2] [RFU]	Fluorescence intensity (RFU), Mean, 0.125 x MIC [2] [RFU]	Fluorescence intensity (RFU), Mean, 0.25 x MIC [2] [RFU]	Fluorescence intensity (RFU), Mean, 0.5 x MIC [2] [RFU]	Fluorescence intensity (RFU), Mean, 2 x MIC [2] [RFU]	Fluorescence intensity (RFU), Mean, MIC [2] [RFU]	other results
CO[C@@H]1[C@@H](O[C@@H]2O[C@H](C)[C@@H](O[C@H]3C[C@@](C)(O)[C@@H](OC(=O)CC(C)C)[C@H](C)O3)[C@H](N(C)C)[C@H]2O)[C@@H](CC=O)C[C@@H](C)[C@@H](O)/C=C/C=C/C[C@@H](C)OC(=O)C[C@H]1OC(C)=O [Josamycin]	40 (≈ 33.1 µg/mL)	80 (≈ 66.2 µg/mL)	80 (≈ 66.2 µg/mL)	> 160	2 (≈ 1.66 µg/mL)	128 (≈ 106 µg/mL)	34.3	8835.42	7817.11	5830.67	2645.69	1478.33	1710.25	average Δlog10(CFU/ml) (killing) ([1]; drug conc. 0.1): 0.030 log10(CFU/ml); average Δlog10(CFU/ml) (killing) ([1]; drug conc. 0.5): 0.110 log10(CFU/ml); average Δlog10(CFU/ml) (killing) ([1]; drug conc. 2.5): 0.195 log10(CFU/ml); average Δlog10(CFU/ml) (killing) ([1]; drug conc. 10): 0.084 log10(CFU/ml); MIC:IC50 ratio ([2]; S. flexneri MIC in TSB versus intracellular IC50): > 2
CCC(=O)O[C@@H]1CC(=O)O[C@H](C)C/C=C/C=C/[C@H](O)[C@H](C)C[C@H](CC=O)[C@H](O[C@@H]2O[C@H](C)[C@@H](O[C@H]3C[C@@](C)(O)[C@@H](OC(=O)CC)[C@H](C)O3)[C@H](N(C)C)[C@H]2O)[C@H]1OC [Midecamycin]	160 (≈ 130 µg/mL)	160 (≈ 130 µg/mL)	> 160	> 160	2 (≈ 1.63 µg/mL)	128 (≈ 104 µg/mL)	91	9401.53	9631.81	8761.75	6972.36	1708.61	3717.14	MIC (E. coli CFT073 (UPEC); pH 7.4, CA-MHB, read-out: MIC (μM) CA-MHB): >160 µM; MIC (E. coli CFT073 (UPEC); Escherichia coli, LPM pH 5.5, read-out: MIC): 160 µM (≈ 130 µg/mL); UPEC regrowth delay (non-growing UPEC CFT073): effectively delays UPEC regrowth
